Experimental data as given in US7429660B2, “ATM inhibitors” (Kudos Pharmaceuticals Limited, priority 2003, dated 2008).

These compounds were tested against T1, ATM protein immunoprecipitated from HeLa cell nuclear extract (Homo sapiens, UniProt Q13315) (assay: In vitro ATM inhibition assay (phosphorylation of GSTp53N66 on serine 15, chemiluminescent detection)). Details: read-out: IC50 values (the concentration at which 50% of the enzyme activity is inhibited), ATM inhibition.
T1 construct: ATM protein was immunoprecipitated from HeLa cell nuclear extract; endogenous in cells; host or cells: HeLa cell nuclear extract (immunoprecipitated with rabbit polyclonal anti-ATM antiserum)
T1 sequence (Q13315 whole entry): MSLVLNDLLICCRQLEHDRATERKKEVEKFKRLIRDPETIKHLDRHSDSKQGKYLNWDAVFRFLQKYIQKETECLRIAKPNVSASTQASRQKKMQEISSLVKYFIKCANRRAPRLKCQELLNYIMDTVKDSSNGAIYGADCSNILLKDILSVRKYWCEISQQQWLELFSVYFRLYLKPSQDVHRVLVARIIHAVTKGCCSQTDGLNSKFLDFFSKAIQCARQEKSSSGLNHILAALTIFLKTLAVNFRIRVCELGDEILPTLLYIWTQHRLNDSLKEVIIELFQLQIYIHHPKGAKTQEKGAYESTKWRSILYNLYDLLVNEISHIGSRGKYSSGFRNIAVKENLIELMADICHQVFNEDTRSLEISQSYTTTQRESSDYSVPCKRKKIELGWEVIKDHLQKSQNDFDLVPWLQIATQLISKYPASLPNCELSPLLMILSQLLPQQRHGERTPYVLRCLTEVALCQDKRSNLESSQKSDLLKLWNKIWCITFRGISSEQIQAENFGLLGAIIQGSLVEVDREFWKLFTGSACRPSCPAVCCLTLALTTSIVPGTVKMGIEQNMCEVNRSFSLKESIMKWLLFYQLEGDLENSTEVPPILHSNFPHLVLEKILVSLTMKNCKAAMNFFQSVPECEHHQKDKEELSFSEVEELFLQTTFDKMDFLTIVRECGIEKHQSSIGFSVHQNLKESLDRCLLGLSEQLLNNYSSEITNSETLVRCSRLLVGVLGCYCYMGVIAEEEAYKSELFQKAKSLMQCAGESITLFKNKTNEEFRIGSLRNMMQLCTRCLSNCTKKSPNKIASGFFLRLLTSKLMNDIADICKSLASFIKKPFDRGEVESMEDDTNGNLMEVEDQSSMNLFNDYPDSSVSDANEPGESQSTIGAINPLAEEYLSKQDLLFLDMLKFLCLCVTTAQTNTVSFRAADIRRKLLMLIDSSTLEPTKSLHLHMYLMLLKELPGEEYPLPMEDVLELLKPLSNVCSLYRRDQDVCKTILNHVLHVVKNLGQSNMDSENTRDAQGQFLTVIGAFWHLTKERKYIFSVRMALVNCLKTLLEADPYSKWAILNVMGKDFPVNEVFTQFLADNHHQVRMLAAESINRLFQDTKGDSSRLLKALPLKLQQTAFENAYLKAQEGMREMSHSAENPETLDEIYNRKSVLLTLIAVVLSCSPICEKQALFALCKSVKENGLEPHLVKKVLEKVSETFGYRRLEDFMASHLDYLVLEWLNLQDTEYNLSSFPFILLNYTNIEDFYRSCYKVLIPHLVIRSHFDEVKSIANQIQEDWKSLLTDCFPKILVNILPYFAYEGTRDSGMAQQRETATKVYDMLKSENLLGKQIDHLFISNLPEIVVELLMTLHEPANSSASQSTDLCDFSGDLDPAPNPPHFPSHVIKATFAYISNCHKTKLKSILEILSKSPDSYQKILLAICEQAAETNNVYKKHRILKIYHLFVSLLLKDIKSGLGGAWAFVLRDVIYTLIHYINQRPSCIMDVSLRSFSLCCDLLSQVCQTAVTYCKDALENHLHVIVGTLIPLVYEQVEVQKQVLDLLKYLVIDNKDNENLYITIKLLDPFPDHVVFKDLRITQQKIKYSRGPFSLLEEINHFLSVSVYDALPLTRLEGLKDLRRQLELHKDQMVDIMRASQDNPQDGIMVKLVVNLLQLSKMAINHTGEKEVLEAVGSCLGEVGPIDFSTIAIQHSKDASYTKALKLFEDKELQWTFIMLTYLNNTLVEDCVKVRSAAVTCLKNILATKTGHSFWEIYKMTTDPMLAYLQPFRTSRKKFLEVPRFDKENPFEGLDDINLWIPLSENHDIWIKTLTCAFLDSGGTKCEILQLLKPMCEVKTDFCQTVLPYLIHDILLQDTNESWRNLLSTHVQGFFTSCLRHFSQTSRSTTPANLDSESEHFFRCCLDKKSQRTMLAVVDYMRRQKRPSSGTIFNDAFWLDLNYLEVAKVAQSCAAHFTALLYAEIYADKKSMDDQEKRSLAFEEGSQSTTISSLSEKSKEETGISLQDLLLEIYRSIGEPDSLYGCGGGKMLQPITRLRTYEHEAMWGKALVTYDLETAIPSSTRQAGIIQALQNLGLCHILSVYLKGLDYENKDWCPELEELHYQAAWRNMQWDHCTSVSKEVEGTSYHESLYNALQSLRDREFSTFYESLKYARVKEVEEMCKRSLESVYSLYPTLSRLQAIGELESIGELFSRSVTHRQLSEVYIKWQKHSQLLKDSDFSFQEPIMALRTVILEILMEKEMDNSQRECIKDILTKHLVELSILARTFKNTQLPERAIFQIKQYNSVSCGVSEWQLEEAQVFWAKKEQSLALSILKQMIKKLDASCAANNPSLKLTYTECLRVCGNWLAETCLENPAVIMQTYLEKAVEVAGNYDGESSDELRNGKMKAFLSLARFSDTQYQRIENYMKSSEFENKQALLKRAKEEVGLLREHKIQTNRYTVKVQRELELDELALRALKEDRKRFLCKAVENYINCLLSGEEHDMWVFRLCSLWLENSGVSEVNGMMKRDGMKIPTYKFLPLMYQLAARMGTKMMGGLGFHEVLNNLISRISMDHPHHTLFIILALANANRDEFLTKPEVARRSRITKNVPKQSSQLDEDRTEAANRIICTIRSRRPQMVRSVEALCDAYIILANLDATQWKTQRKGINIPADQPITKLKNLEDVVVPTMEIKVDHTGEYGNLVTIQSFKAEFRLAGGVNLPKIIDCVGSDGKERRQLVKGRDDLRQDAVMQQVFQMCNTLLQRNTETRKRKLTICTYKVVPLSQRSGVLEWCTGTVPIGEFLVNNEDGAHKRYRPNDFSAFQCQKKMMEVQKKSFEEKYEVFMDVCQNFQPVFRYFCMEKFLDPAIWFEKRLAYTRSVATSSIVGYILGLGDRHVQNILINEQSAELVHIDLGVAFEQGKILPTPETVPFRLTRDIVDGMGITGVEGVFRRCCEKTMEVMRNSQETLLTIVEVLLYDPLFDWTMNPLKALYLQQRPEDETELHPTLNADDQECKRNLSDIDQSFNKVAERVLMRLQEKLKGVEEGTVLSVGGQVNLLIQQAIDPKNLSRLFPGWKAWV
Type: biochemical
Experimental: In order to assess the inhibitory action of the compounds against ATM in vitro, the following assay was used to determine IC50 values. ATM protein was immunoprecipitated from HeLa cell nuclear extract using rabbit polyclonal anti-sera raised to the C-terminal ˜500 amino-acid residues of the human ATM protein. […] 10 μl of immunoprecipitated ATM in Buffer C (50 mM Hepes, pH 7.4, 6 mM MgCl2, 150 mM NaCl, 0.1 mM sodium orthovanadate, 4 mM MnCl2, 0.1 mM dithiothreitol, 10% glycerol) was added to 32.5 μl of buffer C containing 1 μg of the ATM substrate GSTp53N66 in a V-bottomed 96 well polypropylene plate. The GSTp53N66 substrate is the amino terminal 66 amino acid residues of human wild type p53 fused to glutathione S-transferase. […] Varying concentrations of inhibitor were then added. […] After 10 minutes of incubation at 37° C., the reactions were initiated by the addition of 5 μl of 500 μM Na-ATP. After 1 hour with shaking at 37° C., 150 μl of phosphate buffered saline (PBS) was added to the reaction and the plate centrifuged at 1500 rpm for 10 minutes. 5 μl of the reaction was then transferred to a 96 well opaque white plate containing 45 μl of PBS to allow the GSTp53N66 substrate to bind to the plate wells. The plate was covered and incubated at room temperature for 1 hour with shaking before discarding the contents. The plate wells were washed twice by the addition of PBS prior to the addition of 3% (w/v) bovine serum albumin (BSA) in PBS. The plate was incubated at room temperature for 1 hour with shaking before discarding the contents and washing twice with PBS. To the wells, 50 μl of a 1:10,000 dilution of primary phosphoserine-15 antibody (Cell Signaling Technology, #9284L) in 3% BSA/PBS was added to detect the phosphorylation event on the serine 15 residue of p53 elicited by the ATM kinase. […] The wells were then washed four times with PBS before the addition of chemiluminescence reagent (NEN Renaissance, NEL105). The plate was then shaken briefly, covered with a transparent plate seal and transferred to a TopCount NXT for chemiluminescent counting. Counts per second, following a one second counting time, were recorded for each reaction.
The enzyme activity for each compound is then calculated using the following equation:
[formula] Results In vitro ATM assays
Compounds were assayed for ATM inhibition activity using the method described above. […] These are determined over a range of different concentrations, normally from 100 μM down to 0.1 nM. Such IC50 values are used as comparative values to identify increased compound potencies.

IC50, < 200 nM:
CN1CCCN(C(=O)COc2ccc3c(c2)Sc2cccc(-c4cc(=O)cc(N5CCOCC5)o4)c2S3)CC1 [Compound 442]
CN(C)CCN(C)CCC(=O)Nc1ccc2c(c1)Sc1cccc(-c3cc(=O)cc(N4CCOCC4)o3)c1S2 [Compound 112]
O=c1cc(-c2cccc3c2Sc2ccccc2N3CCCNC2CCCCC2)oc(N2CCOCC2)c1 [Compound 251]
O=C(CCN1CCN(CCOCCO)CC1)Nc1ccc2c(c1)Sc1cccc(-c3cc(=O)cc(N4CCOCC4)o3)c1S2 [Compound 117]
O=C(CCN1CCOCC1)Nc1ccc2c(c1)Sc1cccc(-c3cc(=O)cc(N4CCOCC4)o3)c1S2 [Compound 91]
CC(=O)N1CCN(CC(=O)Nc2ccc3c(c2)Sc2cccc(-c4cc(=O)cc(N5CCOCC5)o4)c2S3)CC1 [Compound 77]
O=C(COc1ccc2c(c1)Cc1cccc(-c3cc(=O)cc(N4CCOCC4)o3)c1S2)N1CCOCC1 [Compound 494]
O=C(CN1CCNCC1)Nc1ccc2c(c1)Sc1cccc(-c3cc(=O)cc(N4CCOCC4)o3)c1S2 [Compound 53]
CN1CCN(S(=O)(=O)c2ccc3c(c2)Cc2cccc(-c4cc(=O)cc(N5CCOCC5)o4)c2S3)CC1 [Compound 480]
O=C(Nc1ccc2c(c1)Sc1cccc(-c3cc(=O)cc(N4CCOCC4)o3)c1S2)c1cccs1 [Compound 32]
C[C@@H]1COC[C@H](C)N1CCCOc1ccc(-c2cc(=O)cc(N3CCOCC3)o2)c2c1Sc1ccccc1S2 [Compound 181]
COC(=O)CCC(=O)Nc1ccc2c(c1)Sc1cccc(-c3cc(=O)cc(N4CCOCC4)o3)c1S2 [Compound 41]
O=C(COc1ccc2c(c1)Sc1cccc(-c3cc(=O)cc(N4CCOCC4)o3)c1S2)N1CCCC(CO)C1 (stereo not shown) [Compound 418]
O=c1cc(-c2cccc3c2Sc2ccccc2N3CCCNCCN2CCCC2)oc(N2CCOCC2)c1 [Compound 264]
CN(C)CCN1CCN(CC(=O)Nc2ccc3c(c2)Sc2cccc(-c4cc(=O)cc(N5CCOCC5)o4)c2S3)CC1 [Compound 86]
O=C(COc1ccc2c(c1)Sc1cccc(-c3cc(=O)cc(N4CCOCC4)o3)c1S2)NC(CO)CO [Compound 411]
COCCN(CCOC)C(=O)COc1ccc2c(c1)Sc1cccc(-c3cc(=O)cc(N4CCOCC4)o3)c1S2 [Compound 445]
O=C(c1ccco1)N1CCN(CCOc2ccc3c(c2)Sc2cccc(-c4cc(=O)cc(N5CCOCC5)o4)c2S3)CC1 [Compound 395]
COC(=O)C(=O)Nc1ccc2c(c1)Sc1cccc(-c3cc(=O)cc(N4CCOCC4)o3)c1S2 [Compound 36]
CC(C)N1CCN(CCC(=O)Nc2ccc3c(c2)Cc2cccc(-c4cc(=O)cc(N5CCOCC5)o4)c2S3)CC1 [Compound 351]
O=C(CN1CCN(c2ccccn2)CC1)Nc1ccc2c(c1)Sc1cccc(-c3cc(=O)cc(N4CCOCC4)o3)c1S2 [Compound 82]
CCN(CC)CCC(=O)Nc1ccc2c(c1)Sc1cccc(-c3cc(=O)cc(N4CCOCC4)o3)c1S2 [Compound 105]
CN1CCCN(CCC(=O)Nc2ccc3c(c2)Sc2cccc(-c4cc(=O)cc(N5CCOCC5)o4)c2S3)CC1 [Compound 99]
O=c1cc(-c2cccc3c2Sc2ccccc2N3CCCN(CCO)CCO)oc(N2CCOCC2)c1 [Compound 327]
O=C(CN1CCN(c2ccc(F)cc2)CC1)Nc1ccc2c(c1)Sc1cccc(-c3cc(=O)cc(N4CCOCC4)o3)c1S2 [Compound 83]
COCCN1CCN(C(=O)c2ccc3c(c2)Sc2cccc(-c4cc(=O)cc(N5CCOCC5)o4)c2S3)CC1 [Compound 17]
O=C(CCN1CCN(CCO)CC1)Nc1ccc2c(c1)Sc1cccc(-c3cc(=O)cc(N4CCOCC4)o3)c1S2 [Compound 128]
CC(C)N(CCNCCCOc1ccc(-c2cc(=O)cc(N3CCOCC3)o2)c2c1Sc1ccccc1S2)C(C)C [Compound 200]
O=c1cc(-c2cccc3c2Sc2ccc(S(=O)(=O)NCC4CCCO4)cc2C3)oc(N2CCOCC2)c1 (stereo not shown) [Compound 455]
O=C(CN(CCO)CCO)Nc1ccc2c(c1)Sc1cccc(-c3cc(=O)cc(N4CCOCC4)o3)c1S2 [Compound 55]
O=c1cc(-c2cccc3c2Sc2ccc(S(=O)(=O)N4CCCCC4)cc2C3)oc(N2CCOCC2)c1 [Compound 485]
O=C(COc1ccc2c(c1)Sc1cccc(-c3cc(=O)cc(N4CCOCC4)o3)c1S2)N1CCN(CCO)CC1 [Compound 436]
C[C@@H]1CN(C(=O)COc2ccc3c(c2)Sc2cccc(-c4cc(=O)cc(N5CCOCC5)o4)c2S3)C[C@H](C)O1 [Compound 433]
O=C(CCNCC1CCCO1)Nc1ccc2c(c1)Sc1cccc(-c3cc(=O)cc(N4CCOCC4)o3)c1S2 (stereo not shown) [Compound 107]
O=C(Nc1ccc2c(c1)Sc1cccc(-c3cc(=O)cc(N4CCOCC4)o3)c1S2)c1csc(-c2cccs2)n1 [Compound 46]
COc1ccccc1C(=O)Nc1ccc2c(c1)Sc1cccc(-c3cc(=O)cc(N4CCOCC4)o3)c1S2 [Compound 31]
O=C(CNCCN1CCCCC1)Nc1ccc2c(c1)Sc1cccc(-c3cc(=O)cc(N4CCOCC4)o3)c1S2 [Compound 88]
O=C(CCCCC1SC[C@@H]2NC(=O)N[C@H]12)NCCCCCC(=O)NCCNCCCN1c2ccccc2Sc2c(-c3cc(=O)cc(N4CCOCC4)o3)cccc21 (stereo partly shown) [Compound 336]
CN1CCN(CC(=O)Nc2ccc3c(c2)Sc2cccc(-c4cc(=O)cc(N5CCOCC5)o4)c2S3)CC1 [Compound 54]
O=C(COc1ccc2c(c1)Sc1cccc(-c3cc(=O)cc(N4CCOCC4)o3)c1S2)N1CCCCCC1 [Compound 446]
CC(C)N1CCN(CC(=O)Nc2ccc3c(c2)Sc2cccc(-c4cc(=O)cc(N5CCOCC5)o4)c2S3)CC1 [Compound 80]
O=C(CCNCCN1CCNC1=O)Nc1ccc2c(c1)Sc1cccc(-c3cc(=O)cc(N4CCOCC4)o3)c1S2 [Compound 113]
CC(C)N1CCN(C(=O)COc2ccc3c(c2)Sc2cccc(-c4cc(=O)cc(N5CCOCC5)o4)c2S3)CC1 [Compound 437]
CCCCNC(=O)COc1ccc2c(c1)Sc1cccc(-c3cc(=O)cc(N4CCOCC4)o3)c1S2 [Compound 407]
O=c1cc(-c2cccc3c2Sc2ccccc2N3CCCNC2CCCC2)oc(N2CCOCC2)c1 [Compound 254]
O=C(Nc1ccc2c(c1)Sc1cccc(-c3cc(=O)cc(N4CCOCC4)o3)c1S2)c1ccco1 [Compound 29]
CCOC(=O)C1CCCN(CCCN2c3ccccc3Sc3c(-c4cc(=O)cc(N5CCOCC5)o4)cccc32)C1 (stereo not shown) [Compound 315]
O=C(COc1ccc2c(c1)Cc1cccc(-c3cc(=O)cc(N4CCOCC4)o3)c1S2)N1CCSCC1 [Compound 510]
O=c1cc(-c2cccc3c2Sc2ccc(OCCNCCO)cc2S3)oc(N2CCOCC2)c1 [Compound 367]
O=c1cc(-c2cccc3c2Sc2ccccc2N3CCCN2CCN(c3ccncc3)CC2)oc(N2CCOCC2)c1 [Compound 291]
O=c1cc(-c2cccc3c2Sc2ccccc2N3CCCNCC2CCCCC2O)oc(N2CCOCC2)c1 (stereo not shown) [Compound 328]
O=C(CN1CCCCCC1)Nc1ccc2c(c1)Sc1cccc(-c3cc(=O)cc(N4CCOCC4)o3)c1S2 [Compound 62]
CCN(CC)CCCN1c2ccccc2Sc2c(-c3cc(=O)cc(N4CCOCC4)o3)cccc21 [Compound 244]
O=C(COc1ccc2c(c1)Cc1cccc(-c3cc(=O)cc(N4CCOCC4)o3)c1S2)NCC(F)(F)F [Compound 496]
O=C(c1ccc2c(c1)Sc1cccc(-c3cc(=O)cc(N4CCOCC4)o3)c1S2)N1CCNCC1 [Compound 19]
O=C(CCN1CCCC1)Nc1ccc2c(c1)Sc1cccc(-c3cc(=O)cc(N4CCOCC4)o3)c1S2 [Compound 98]
CCN1CCCC1CNCC(=O)Nc1ccc2c(c1)Sc1cccc(-c3cc(=O)cc(N4CCOCC4)o3)c1S2 (stereo not shown) [Compound 87]
CC(C)N1CCN(CCC(=O)Nc2ccc3c(c2)Sc2cccc(-c4cc(=O)cc(N5CCOCC5)o4)c2S3)CC1 [Compound 118]
